These results are taken from ChEMBL document CHEMBL3997795, “Conjugates of 2,4-Dihydroxybenzoate and Salicylhydroxamate and Lipocations Display Potent Antiparasite Effects by Efficiently Targeting the Trypanosoma brucei and Trypanosoma congolense Mitochondrion” (J Med Chem, 2017).

Each structure is given as a SMILES string. The source made the active and inactive calls. The rule behind the calls is not given here.

For data set [1], the system named is Trypanosoma brucei brucei. Nature of the data set: Anti-parasitic activity against bloodstream trypomastigote stage of wild-type Trypanosoma brucei brucei Lister 427 after 48 hrs by alamar blue based fluorescence assay. The class given is functional. As to conditions: Lister 427, 48 h.
For data set [2], the system named is Trypanosoma brucei brucei. Put plainly: Trypanocidal activity against bloodstream trypomastigote stage of wild-type Trypanosoma brucei brucei Lister 427 assessed as inhibition of respiration in presence of glycerol. It counts as functional.
Data set [3] has as its system Trypanosoma brucei brucei. Nature of the data set: Resistant factor, ratio of EC50 for bloodstream trypomastigote stage of wild-type Trypanosoma brucei brucei Lister 427 assessed as inhibition of respiration in presence of glycerol to EC50 for bloodstream trypomastigote stage of wild-type Trypanosoma brucei brucei Lister 427 assessed as inhibition of respiration in absence of glycerol. The class given is functional.

A short description of data set [4]: Inhibition of recombinant MTS-deficient N-terminal His6-tagged and SUMO-tagged Trypanosoma alternative oxidase expressed in Escherichia coli FN102 using ubiquinol-1 as substrate.
Data set [5] concerns Trypanosoma brucei brucei. Put plainly: Anti-parasitic activity against diminazene, pentamidine and melaminophenyl arsenical-resistant bloodstream trypomastigote stage of Trypanosoma brucei brucei B48 harboring TbAT1 deletion mutant after 48 hrs by alamar blue based fluorescence assay. It counts as functional. As to conditions: B48, 48 h.
In a further data set the test system is Trypanosoma congolense. Nature of the data set: Anti-parasitic activity against bloodstream form of Trypanosoma congolense IL3000 after 48 hrs by alamar blue based fluorescence assay. The class given is functional. The settings on record: IL3000, 48 h.
The nature of data set [6]: Cytotoxicity against HFF cells after 30 hrs by resazurin based fluorimetric assay. The class given is cell-based. The settings on record: human.
Data set [7] is described as follows: Selectivity index, ratio of CC50 for HFF cells to EC50 for bloodstream trypomastigote stage of wild-type Trypanosoma brucei brucei Lister 427. It counts as toxicity. The settings on record: human, read-out: Ratio CC50/EC50.
A short description of data set [8]: Selectivity index, ratio of CC50 for HFF cells to EC50 for bloodstream form of Trypanosoma congolense IL3000. The class given is toxicity. As to conditions: human, read-out: Ratio CC50/EC50.
Data set [9] is described as follows: Resistance factor, ratio of EC50 for diminazene, pentamidine and melaminophenyl arsenical-resistant bloodstream trypomastigote stage of Trypanosoma brucei brucei B48 harboring TbAT1 deletion mutant to EC50 for bloodstream trypomastigote stage of wild-type Trypanosoma brucei brucei Lister 427. The class given is functional.
For data set [10], the system named is Trypanosoma brucei brucei. Nature of the data set: Induction of mitochondrial membrane depolarization in bloodstream trypomastigote stage of wild-type Trypanosoma brucei brucei Lister 427 at 100 nM after 10 mins by TMRE dye based flow cytometry. It counts as functional.
In data set [11] the test system is Trypanosoma brucei brucei. Nature of the data set: Reduction in oxygen consumption in bloodstream trypomastigote stage of wild-type Trypanosoma brucei brucei Lister 427 measured immediately for 120 mins by fluorescent oxygen reporter probe based fluorimetric assay. It counts as functional.
The subject of data set [12] is Trypanosoma brucei brucei. Put plainly: Reduction in oxygen consumption in bloodstream trypomastigote stage of wild-type Trypanosoma brucei brucei Lister 427 at 50 uM measured immediately for 120 mins by fluorescent oxygen reporter probe based fluorimetric assay. The class given is functional.
The test system of data set [13] is Trypanosoma brucei brucei. Put plainly: Anti-parasitic activity against bloodstream trypomastigote stage of Trypanosoma brucei brucei Lister 427 over-expressing TAO relative to bloodstream trypomastigote stage of wild-type Trypanosoma brucei brucei Lister 427. The class given is functional.
The test system of data set [14] is Trypanosoma brucei brucei. Put plainly: Induction of plasma membrane disruption in bloodstream trypomastigote stage of wild-type Trypanosoma brucei brucei Lister 427 assessed as increase in propidium iodide influx after 6 hrs by fluorimetric assay. It counts as functional.
For data set [15], the system named is Trypanosoma brucei brucei. Nature of the data set: Trypanocidal activity against bloodstream trypomastigote stage of wild-type Trypanosoma brucei brucei Lister 427 at 3 times EC50 after 4 hrs by propidium iodide staining based fluorimetric assay. The class given is functional.
In data set [16] the test system is Trypanosoma brucei brucei. Put plainly: Induction of mitochondrial membrane depolarization in bloodstream trypomastigote stage of wild-type Trypanosoma brucei brucei Lister 427 at 0.005 uM after 10 mins by TMRE dye based flow cytometry. It counts as functional.
In data set [17] the test system is Trypanosoma brucei brucei. Put plainly: Cell cycle arrest in bloodstream trypomastigote stage of wild-type Trypanosoma brucei brucei Lister 427 assessed as accumulation at G1 phase at 0.005 uM after 24 hrs by propidium iodide staining-based flow cytometry. It counts as functional.
Data set [18] concerns Trypanosoma brucei brucei. Nature of the data set: Cell cycle arrest in bloodstream trypomastigote stage of wild-type Trypanosoma brucei brucei Lister 427 assessed as accumulation at S phase at 0.005 uM after 24 hrs by propidium iodide staining-based flow cytometry. The class given is functional.
Data set [19] relates to Trypanosoma brucei brucei. Nature of the data set: Cell cycle arrest in bloodstream trypomastigote stage of wild-type Trypanosoma brucei brucei Lister 427 assessed as accumulation at G2 phase at 0.005 uM after 24 hrs by propidium iodide staining-based flow cytometry. It counts as functional.
The subject of data set [20] is Trypanosoma brucei brucei. Nature of the data set: Trypanocidal activity against bloodstream trypomastigote stage of wild-type Trypanosoma brucei brucei Lister 427 assessed as inhibition of respiration at 10 uM in presence of glycerol. It counts as functional.
The subject of data set [21] is Trypanosoma brucei brucei. Put plainly: Trypanocidal activity against bloodstream trypomastigote stage of wild-type Trypanosoma brucei brucei Lister 427 assessed as inhibition of respiration at 10 uM. The class given is functional.
A short description of data set [22]: Cytostatic activity against HEK293T cells after 30 hrs by resazurin based fluorimetric assay. It counts as cell-based, HEK-293T. As to conditions: human.
Data set [23] in a line: Cytotoxicity against HEK cells up to 50 uM after 30 hrs by resazurin based fluorimetric assay. It counts as cell-based. The settings on record: human.
A short description of data set [24]: Selectivity index, ratio of CC50 for HEK293T cells to EC50 for bloodstream trypomastigote stage of wild-type Trypanosoma brucei brucei Lister 427. The class given is toxicity. The settings on record: human, read-out: Ratio CC50/EC50.
Data set [25] can be described thus: Selectivity index, ratio of CC50 for HEK293T cells to EC50 for bloodstream form of Trypanosoma congolense IL3000. It counts as toxicity. The settings on record: human, read-out: Ratio CC50/EC50.
The subject of data set [26] is Trypanosoma brucei brucei. Put plainly: Induction of mitochondrial membrane hyperpolarization in bloodstream trypomastigote stage of wild-type Trypanosoma brucei brucei Lister 427 at 10 uM after 10 mins by TMRE dye based flow cytometry. The class given is functional.

In the case of `O=C(O)c1ccc(O)cc1O` [2,4-DIHYDROXYBENZOIC ACID], the results for the concentration for a half-maximal effect (EC50) in data set [1] and in data set [2] were 17100 nM and 19000 nM, respectively. In addition, the “Ratio EC50” value in data set [3] is recorded as 1.11. Further, the IC50 in data set [4] is 116 µM.

Take `O=C(OCCCCCCCCCCCCCCCC[n+]1cccc2ccccc21)c1ccc(O)cc1O.[Br-]`: the concentration for a half-maximal effect (EC50) is 140 nM in [1], 140 nM in data set [5], 3000 nM with Trypanosoma congolense and 89 nM in data set [2]. The half-maximal cytotoxic concentration (CC50) at 30 h in data set [6] stood at 345 µM. Moreover, the values for the selectivity ratio in data set [7] and in [8] were 2410 and 115, respectively. The “Ratio EC50” value in [3] amounted to 0.62; in [9] it was 1.01. Moreover, the half-maximal inhibitory concentration (IC50) in data set [4] was > 5 µM.

Turning to `CC(C)[C@@H]1NC(=O)[C@H](C)OC(=O)[C@@H](C(C)C)NC(=O)[C@@H](C(C)C)OC(=O)[C@H](C(C)C)NC(=O)[C@H](C)OC(=O)[C@@H](C(C)C)NC(=O)[C@@H](C(C)C)OC(=O)[C@H](C(C)C)NC(=O)[C@H](C)OC(=O)[C@@H](C(C)C)NC(=O)[C@@H](C(C)C)OC1=O`, in data set [10], the outcome was Active.

Consider `O=C(NO)c1ccccc1O` [SALICYLHYDROXAMIC ACID], for which the Activity result in data set [11] is “Dose-dependent effect”. Moreover, the outcome in data set [12] was Active. Also, the half-maximal effective concentration (EC50) in data set [1] was found to be 38700 nM; in [2], 7000 nM. Also, the “fold change (FC)” value in [13] was 1.6.

For `O=C(OCCCCCCCCCCCCCC[n+]1cccc2ccccc21)c1ccc(O)cc1O.[Br-]`, the concentration for a half-maximal effect (EC50) in [1] is 100 nM; in data set [5], 125 nM; with Trypanosoma congolense, 3800 nM; in [2], 78 nM. The CC50 at 30 h in data set [6] amounted to 172 µM. For the same compound, the selectivity ratio in data set [7] was determined as 1660; in data set [8], 45.3. Further, in [14], the Activity result is “Dose-dependent effect”. In addition, the outcome in data set [15] was Active. The “Ratio EC50” value in data set [3] was found to be 0.75; in data set [9], 1.21. In data set [4], the half-maximal inhibitory concentration (IC50) was 1.36 µM.

As to `O=C(OCCCCCCCCCCCCCC[P+](c1ccccc1)(c1ccccc1)c1ccccc1)c1ccc(O)cc1O.[Br-]`, the Activity result in [11] and in data set [14] was “Dose-dependent effect” in each case. The result in data set [16], in [15], in data set [17], in data set [18] and in data set [19] was Active. In addition, the EC50 amounted to 1.5 nM in data set [1], 1.2 nM in [5], 61 nM with Trypanosoma congolense and 0.8 nM in data set [2]. For the same compound, the CC50 at 30 h in data set [6] is 59.7 µM. Further, the selectivity ratio was found to be 23400 in [7] and 982 in data set [8]. In addition, the “Ratio EC50” value was determined as 0.55 in data set [3] and 0.78 in [9]. In data set [4], the IC50 worked out at 1.46 µM. The “fold change (FC)” value in data set [13] is on record as 2.6.

Take `BrCCCCCCCCCC[P+](c1ccccc1)(c1ccccc1)c1ccccc1.[Br-]`: the inhibition result in data set [20] and in [21] was “inactive” throughout. The 50% effective concentration (EC50) is 1.8 nM in data set [1], 1.2 nM in [5] and 950 nM in the data set on Trypanosoma congolense. The compound further had a half-maximal cytotoxic concentration (CC50) at 30 h in [22] of 6.01 µM. In addition, the Activity entry in [23] was “Non-Toxic”. Further, the selectivity ratio in data set [24] turned out to be 3340; in [25] it was 6.3. For the same compound, in data set [9], the Ratio EC50 was 0.7.

Regarding `O=C(OCCCCCCCC[P+](c1ccccc1)(c1ccccc1)c1ccccc1)c1ccc(O)cc1O.[Br-]`, the 50% effective concentration (EC50) was found to be 73 nM in [1], 68 nM in [5], 4300 nM with Trypanosoma congolense and 84 nM in data set [2]. Further, in [22], it took 7.73 µM to reach half-maximal cytotoxicity (CC50 at 30 h). In addition, in data set [23], the Activity entry is recorded as “Non-Toxic”. The results for the selectivity ratio in data set [24] and in data set [25] were 106 and 1.8, respectively. The “Ratio EC50” value came to 1.16 in data set [3] and 0.94 in [9].

On to `O=C(OCCCCCCCCCCCC[n+]1cccc2ccccc21)c1ccc(O)cc1O.[Br-]`, for which the EC50 in [1] was found to be 330 nM; in data set [5], 347 nM; in the data set on Trypanosoma congolense it was 7000 nM; in [2], 230 nM. The cytotoxic concentration (CC50) at 30 h in [6] turned out to be 202 µM. Besides, the selectivity ratio in [7] turned out to be 609; in [8], 28.7. Besides, the results for the “Ratio EC50” value in data set [3] and in [9] were 0.69 and 1.05, respectively. For the same compound, in [4], the IC50 was > 5 µM.

Take `O=C(OCCCCCCCCC[P+](c1ccccc1)(c1ccccc1)c1ccccc1)c1ccc(O)cc1O.[Br-]`: the EC50 in data set [1] was 5.9 nM; in data set [5], 7.4 nM; with Trypanosoma congolense it was 410 nM; in [2], 5 nM. Also, in data set [22], the half-maximal cytotoxic concentration (CC50) at 30 h is 4.68 µM. The Activity entry in data set [23] was “Non-Toxic”. In addition, the values for the selectivity ratio in [24] and in [25] were 789 and 11.5, respectively. Besides, the “Ratio EC50” value in data set [3] stood at 0.88; in data set [9] it was 1.24.

For the compound `O=C(OCCCCCCCCCCCCCCCC[P+](c1ccccc1)(c1ccccc1)c1ccccc1)c1ccc(O)cc1O.[Br-]`, the half-maximal effective concentration (EC50) in [1] was found to be 9 nM; in [5], 8 nM; in the data set with Trypanosoma congolense, 122 nM; in data set [2], 5 nM. Also, the CC50 at 30 h in [6] came to 249 µM. Moreover, the selectivity ratio in data set [7] came to 27700; in data set [8], 2040. In addition, the “Ratio EC50” value in [3] was found to be 0.6; in data set [9] it was 0.91. Besides, the IC50 in data set [4] was > 5 µM.

For the compound `Cc1c(C)c2c(c(C)c1O)CCC(C)(COc1ccc(CC3SC(=O)NC3=O)cc1)O2` (stereo unspecified), in data set [26], the outcome was Active.
